Entries after “also recorded” stand apart in the source; their conditions may differ.
Assays:
Type in all cases: cell-based, human
HUVEC = test: Standard one hour Transendothelial Migration (TEM) assay on transduced HUVEC
Procedure: (§1) 293A cells were grown on 100 mm dishes to 70-90% confluency and then transfected with adenoviral constructs using Lipofectamine 2000 for delivery. Amplified virus that expressed KHC and KLC knockdown and rescue constructs was purified and used to in transduction of HUVEC for knockdown and rescue experiments (VIRAPOWER Adenoviral Expression System).
The TEM assay is a quantitative assay designed to assess, using large numbers of transmigration events (more than 300 per variable tested), the effect of various treatments such as knocking down Kinesin-1, on the process of transmigration. As routinely performed in our lab (refs. 19,21; herein incorporated by reference in their entireties), peripheral blood mononuclear cells (PBMC, to assess monocyte transmigration) from healthy volunteers are purified on a Ficoll density gradient and then washed in Hanks' buffered saline solution (HBSS) plus 0.1% human serum albumin. Following this wash, they are resuspended in Medium 199 plus 0.1% human serum albumin. 2×10^6 cells are added to confluent TNF-α activated (10 ng/mL, >4 hrs) human umbilical vein endothelial cell (HUVEC) monolayers grown on hydrated collagen gels and incubated for 1 h at 37° C. in a CO2 incubator (ref. 22; herein incorporated by reference in its entirety). This is enough time to allow maximum TEM of control cells (˜90%).
To assess the role of microtubule motors in leukocyte TEM, control and experimentally treated HUVEC are compared side by side in this assay. The co-culture is washed with cold PBS and fixed overnight with 2.5% glutaraldehyde in 0.1 M sodium cacodylate buffer, pH 7.4. TEM is quantitated by Nomarski optics (ref. 21; herein incorporated by reference in its entirety). […] Monocytes are scored in each of several random fields for each monolayer until at least 100 are counted, with 3 replicate monolayers for each condition for a total of over 300 cells per variable tested. To avoid unintentional bias, all cells in the field are counted. Data are expressed as the percent of total leukocytes (attached plus transmigrated) that have transmigrated.

[1] = tested on: lateral border recycling compartment (LBRC) in HUVEC; test: Targeted Recycling assay (LBRC recruitment to transmigrating leukocytes); conditions: transduced HUVEC, 8.5 minutes
Procedure: The Targeted Recycling assay determines whether the LBRC has been recruited to transmigrating leukocytes. Targeted recycling was performed as described previously (ref 5; herein incorporated by reference in its entirety). HUVEC monolayers are incubated with an Fab fragment of P1.1 mAb for 1 h at 37° C. in a CO2 incubator. […] HUVEC are then put on ice and washed with PBS to remove any free unbound Fab, followed by an incubation with an excess of F(ab′)2 fragment of unlabeled goat anti-mouse IgG on ice for 1 h. This saturably binds all of the Fab that is present on the surface of the endothelial junction, but will not enter the LBRC at this temperature. Free antibody is washed away and 2×10^6 PBMCs mixed with Alexa-568-conjugated F(ab′)2 fragment of the same goat […] transmigration to begin. Cells are then put on ice and washed with ice-cold PBS, followed by fixation in 2% paraformaldehyde for 10 min at room temperature.
In this procedure, only PECAM that was originally in the LBRC and recycled to the surface during the transmigration period will be labeled with the fluorescent secondary antibody, since it was protected from the unlabeled secondary antibody during the incubation on ice. The synchronized transmigration for a short time (8 minutes) catches leukocytes early in the act of transmigration before significant constitutive recycling and a corresponding increase in the staining of uninvolved junction occurs.
Confocal fluorescence microscopy is used to image the targeted recycling events. Leukocytes are identified with fluorescently conjugated mAb against CD18 (IB4). […] The number of monocytes in contact with the endothelial monolayer at cell junctions was assessed, and of those, it was determined how many are contacted by membrane from the LBRC. The intensity of fluorescent Goat-anti-mouse mAb was measured to quantify enrichment of recycling LBRC around transmigrating leukocytes. One-pixel-wide lines are drawn along the area surrounding the site of diapedesis. The mean fluorescence intensity in contact with the leukocyte is divided by the average intensity of constitutively recycled PECAM at the adjacent cell border to calculate LBRC enrichment around transmigrating leukocytes. Multiple monolayers were examined until at least one hundred transmigration events are observed for each variable tested. To avoid unintentional bias each leukocyte in contact with the endothelial border is scored, whether or not it has initiated TEM. […] Image processing and quantification of data are performed using Volocity and ImageJ (NIH) image processing software.

Kinesin-1 = test: Western Blot of Kinesin-1 in virally-transduced HUVEC; conditions: Kinesin-1 shRNA plus mCherry-tagged rescue construct
Procedure: as §1
HUVEC were harvested for SDS-PAGE by washing with PBS and adding sample buffer. DNA was sheared by passing through a 27 G needle 10 times and samples were heated to 100° C. for 5 minutes. Samples were separated on 8% polyacrylamide gels and transferred onto polyvinyldifluoride membranes before blocking with 5% milk in PBS with 0.05% Tween and probing with primary antibodies. Blots were incubated with horseradish peroxidase-conjugated secondary antibodies in 5% milk in PBS with 0.05% Tween, then washed, and detected using chemiluminescence and exposure to X-ray film.

Q: Which results are given for “KLC1 variant 1 shRNA: shRNA targeting 3′ noncoding region of KLC1 isoform variant 1 (NM_005552.4); 5′-TGTATTTGTGTCTTTCTAA-3′ (SEQ ID NO: 11) (the letters are possibly those of the target site)”?
A: transmigration (TEM) of monocytes (HUVEC): reduced; also recorded: blocks; LBRC enrichment around monocytes at endothelial junctions [1]: significantly diminished; targeted recycling of the LBRC [1]: significantly diminished; targeted recycling of the LBRC ([1]; listed as KLC1 Variant 1 shRNA): significantly decreased

Q: How did the “transmigration (TEM) of monocytes” value (HUVEC) turn out when “Kinesin-1 rescue construct: KHC rescue construct with silent point mutations in the targeted sequences and in-frame mCherry tag at the 3′ end” was run?
A: rescued

Q: And the “targeted recycling of the LBRC” value [1]?
A: restored targeted recycling to control levels

Q: And the “Kinesin-1 expression after rescue of knockdown” value (Kinesin-1)?
A: rescued

Q: “KLC1 variants 2 & 3 shRNA: shRNA targeting KLC1 isoform variants 2 (NM_182923.3) and 3 (NM_001130107.1); 5′-GCATAGGACATGATACTAA-3′ (SEQ ID NO: 12) (the letters are possibly those of the target site)” was tested. Which “transmigration (TEM) of monocytes” value (HUVEC) did it give?
A: not
